Measured values from US20170305936A1, “SOLID STATE FORMS OF CRISABOROLE” (Pliva Hrvatska d.o.o., priority 2016, published 2017).
Blank lines part the entries; values can stand above or below the compound they belong to.

Key:
Format in all cases: physicochemical
[1] = Hygroscopicity (water absorption, European Pharmacopoeia 7.0, chapter 01/2008:51100); conditions: non-hygroscopic = less than 0.2% (w/w) water absorption after 24 h exposure to 25° C./80% RH
Experimental: As used herein the term non-hygroscopic in relation to crystalline Crisaborole refers to less than 0.2% (w/w) of water absorption after 24 h exposure to 25° C./80% RH, determined according to European Pharmacopoeia 7.0, chapter 01/2008:51100. Water can be for example atmospheric water.

Solubility in solvents = test: Solubility in solvents
[2] = Mechanical stability (stress, re-analysis by PXRD)
Experimental: Sample after being powdered in a mortar and pestle is applied directly on a silicon plate holder. The X-ray powder diffraction pattern was measured with Philips X'Pert PRO X-ray powder diffractometer, equipped with Cu irradiation source=1.54184 Å (Angstrom), X'Celerator (2.022° 2θ) detector. Scanning parameters: angle range: 3-40 deg., step size 0.0167, time per step 37 s, continuous scan.

[3] = Thermodynamic (polymorphic) stability on storage, re-analysis by PXRD; conditions: for thermodynamic stability (conversion to any other solid state form, by XRPD): up to 50° C./80% RH
Experimental: Thermodynamic stability in relation to crystalline Crisaborole form I refers to less than 20%, 10%, 5%, 2%, 1%, or 0.5% conversion of crystalline Crisaborole form Ito any other solid state form of Crisaborole after exposure of form Ito conditions of up to 50° C./80% RH, e.g. 2-8° C., 25° C./60% RH, 40° C./75% RH for at least 1 month, as measured by XRPD. In some embodiments, the conversion is 1%-20%, 1%-10% or 1%-5%. […] Thermodynamic stability in relation to crystalline Crisaborole form II refers to less than 20%, 10%, 5%, 2%, 1%, or 0.5% conversion of crystalline Crisaborole form II to any other solid state form of Crisaborole after exposure of form II to conditions of up to 50° C./80% RH, e.g. 25° C./60% RH, 40° C./75% RH for at least 2 months, as measured by XRPD. In some embodiments, the conversion is 1%-20%, 1%-10% or 1%-5%. Sample after being powdered in a mortar and pestle is applied directly on a silicon plate holder. The X-ray powder diffraction pattern was measured with Philips X'Pert PRO X-ray powder diffractometer, equipped with Cu irradiation source=1.54184 Å (Angstrom), X'Celerator (2.022° 2θ) detector. Scanning parameters: angle range: 3-40 deg., step size 0.0167, time per step 37 s, continuous scan. Samples of Crisaborole form I were stored for 2 weeks at 25° C. 2-8° C., and for 1 month at different stress conditions: 25° C./60% RH, 40° C./75% RH, 50° C. and 50° C./80% RH.

[4] = Chemical stability on storage (impurity profile, HPLC)
Experimental: HPLC analysis was performed on instrument Agilent 1290, with experimental conditions being set as follows: Samples of Crisaborole form I were stored for 2 weeks at 25° C. 2-8° C., and for 1 month at different stress conditions: 25° C./60% RH, 40° C./75% RH, 50° C. and 50° C./80% RH.

[5] = Stability at high humidity levels
Experimental: Moreover, Form I is stable at high humidity levels (e.g. room temperature at 100% RH for 5-7 days), including after milling procedure (e.g. feeding pressure: 6.5 bar; grinding pressure: 6 bar; rotation speed: 300 rpm).

hygroscopicity [1]: non-hygroscopic
solubility in N,N-dimethylformamide (Solubility in solvents; N,N-dimethylformamide): very soluble
solubility in ethanol (Solubility in solvents; ethanol): freely soluble
solubility in isopropanol (Solubility in solvents; isopropanol): freely soluble
solubility in propylene glycol (Solubility in solvents; propylene glycol): freely soluble
mechanical stability, PXRD after stress ([2]; pressure of 9 tons on 132.67 mm^2 for 2 min): unchanged
mechanical stability, PXRD after stress ([2]; pressure of 9 tons on 132.67 mm^2 for 2 min, listed as Form I): resistant to mechanical stress
mechanical stability, PXRD after stress ([2]; strong grinding using mortar and pestle for 2 min): unchanged
mechanical stability, PXRD after stress ([2]; strong grinding using mortar and pestle for 2 min, listed as Form I): resistant to mechanical stress
mechanical stability, PXRD after stress ([2]; strong grinding with a drop of solvent (e.g. H2O, EtOH) using mortar and pestle for 2 min): unchanged
mechanical stability, PXRD after stress ([2]; strong grinding with a drop of solvent (e.g. H2O, EtOH) using mortar and pestle for 2 min, listed as Form I): resistant to mechanical stress
PXRD after storage ([3]; 1 month at 25° C./60% RH): unchanged
PXRD after storage ([3]; 1 month at 40° C./75% RH): unchanged
PXRD after storage ([3]; 1 month at 50° C.): unchanged
PXRD after storage ([3]; 1 month at 50° C./80% RH): unchanged
PXRD after storage ([3]; 2 weeks at 2-8° C.): unchanged
PXRD after storage ([3]; 2 weeks at 25° C.): unchanged
thermodynamic stability (conversion to any other solid state form, by XRPD) ([3]; e.g. 2-8° C., 25° C./60% RH, 40° C./75% RH for at least 1 month): good thermodynamic stability
thermodynamic stability (conversion to any other solid state form, by XRPD) ([3]; e.g. 2-8° C., 25° C./60% RH, 40° C./75% RH for at least 1 month, listed as Crystalline form I of Crisaborole): thermodynamically stable
chemical stability [4]: chemically stable
impurity profile after storage ([4]; 1 month at 25° C./60% RH): no change in impurity profile
impurity profile after storage ([4]; 1 month at 40° C./75% RH): no change in impurity profile
impurity profile after storage ([4]; 1 month at 50° C.): no change in impurity profile
impurity profile after storage ([4]; 1 month at 50° C./80% RH): no change in impurity profile
impurity profile after storage ([4]; 2 weeks at 2-8° C.): no change in impurity profile
impurity profile after storage ([4]; 2 weeks at 25° C.): no change in impurity profile
stability at high humidity levels after milling procedure ([5]; after milling (feeding pressure 6.5 bar; grinding pressure 6 bar; rotation speed 300 rpm)): stable
stability at high humidity levels ([5]; room temperature at 100% RH for 5-7 days): stable
SMILES: N#Cc1ccc(Oc2ccc3c(c2)COB3O)cc1 [Crisaborole form I, 5-(4-Cyanophenoxy)-1,3-dihydro-1-hydroxy-2,1-benzoxaborole]

thermodynamic stability (conversion to any other solid state form, by XRPD) ([3]; e.g. 25° C./60% RH, 40° C./75% RH for at least 2 months): good thermodynamic stability
thermodynamic stability (conversion to any other solid state form, by XRPD) ([3]; e.g. 25° C./60% RH, 40° C./75% RH for at least 2 months, listed as Crystalline form II of Crisaborole): thermodynamically stable
stability to polymorphic conversions under high humidity ([5]; high humidity): stable
SMILES: N#Cc1ccc(Oc2ccc3c(c2)COB3O)cc1 [Crisaborole form II, 5-(4-Cyanophenoxy)-1,3-dihydro-1-hydroxy-2,1-benzoxaborole]
